Values quoted from earlier work as cited in patent US20070060740A1, “Protein crystal” (priority 2002, published 2007).

Test system: LXR
Conditions: non-steroidal synthetic LXR ligands, background statement; read-out: binding IC50

| Compound | IC50 |
| --- | --- |
| O=C(O)Cc1cccc(OCCCN(Cc2cccc(C(F)(F)F)c2Cl)CC(c2ccccc2)c2ccccc2)c1 [GW3965, 3-(3-(2-chloro-3-trifluoromethylbenzyl-2,2-diphenylethylamino)propoxy)phenylacetic acid] | ~10 nM |
